Laboratory results as given in PMC6447767, “Simultaneous determination of the potent anti-tuberculosis regimen—Pyrazinamide, ethambutol, protionamide, clofazimine in beagle dog plasma using LC–MS/MS method coupled with 96-well format plate” (Journal of Pharmaceutical and Biomedical Analysis, 2019).
Read-outs that look alike come from different tables or passages of the source.

Legend:
[1] = Pharmacokinetic study of the PZA-EMB-PTO-CFZ combination after oral administration; conditions: beagle, dog, plasma, in combination; for AUC: AUC0-τ, 0 to 24/48 h; for AUC / AUC(0-inf) / Cmax / half-life: n = 6; for AUC(0-inf): AUC0-∞; for Tmax: n = 6, mean ± S.D.
[2] = Stability of analytes in Beagle dog plasma (freeze-thaw, long-term, auto-sampler, bench-top); conditions: for %Stability recoveries (Mean ± SD), Freeze-thaw (−80 °C) / %Stability recoveries (Mean ± SD), Bench-top 4 h (4 °C) / %Stability recoveries (Mean ± SD), Long-term 40 days (−80 °C) / Stability accuracy under the test conditions: Beagle dog plasma; for %Stability recoveries (Mean ± SD), Freeze-thaw (−80 °C): 3 freeze-thaw cycles; for %Stability recoveries (Mean ± SD), Freeze-thaw (−80 °C) / %Stability recoveries (Mean ± SD), Bench-top 4 h (4 °C) / %Stability recoveries (Mean ± SD), Long-term 40 days (−80 °C) / %Stability recoveries (Mean ± SD), Auto-sampler 27 h (18 °C): n = 3; for %Stability recoveries (Mean ± SD), Auto-sampler 27 h (18 °C): processed Beagle dog plasma samples; for Stability accuracy under the test conditions: summary over all stability conditions and QC levels
in vivo = conditions: beagle, dog, po
[3] = Solubility in organic solvents noted during sample preparation
[4] = beagle, dog
[5] = High Dose (double of standard dose)
[6] = Low Dose (half of standard dose)
[7] = T1/2, High Dose (double of standard dose)
[8] = T1/2, Low Dose (half of standard dose)
[9] = T1/2, Medium Dose (standard dose)
[10] = Medium Dose (standard: PZA 93.2, EMB 20.7, PTO 15.5, CFZ 5.2 mg/kg)

Q: With CC(C)/N=c1\cc2n(-c3ccc(Cl)cc3)c3ccccc3nc-2cc1Nc1ccc(Cl)cc1 [CFZ, clofazimine] as the compound, how does the AUC [1, 5] read?
A: The AUC was 0.143 ± 0.0371 µg·h/mL.

Q: And the AUC [1, 6]?
A: Its AUC is 0.0175 ± 0.00967 µg·h/mL.

Q: And the AUC ([1]; Medium Dose (standard dose))?
A: Its AUC is 0.0422 ± 0.0177 µg·h/mL.

Q: What about the AUC(0-inf) [1, 5] of the same compound?
A: The AUC(0-inf) was 0.147 ± 0.0374 µg·h/mL.

Q: And the AUC(0-inf) [1, 6]?
A: The AUC(0-inf) was 0.0238 ± 0.0118 µg·h/mL.

Q: What about the AUC(0-inf) ([1]; Medium Dose (standard dose)) of the same compound?
A: The AUC(0-inf) was 0.0531 ± 0.0221 µg·h/mL.

Q: And the Cmax [1, 5]?
A: Its Cmax is 21.6 ± 7.32 ng/mL.

Q: And the Cmax [1, 6]?
A: The Cmax was 3.69 ± 1.32 ng/mL.

Q: What about the Cmax ([1]; Medium Dose (standard dose)) of the same compound?
A: Its Cmax is 7.24 ± 2.58 ng/mL.

Q: What about the half-life [1, 7] of the same compound?
A: Its half-life is 3.63 ± 1.49 h.

Q: And the half-life [1, 8]?
A: Its half-life is 3.41 ± 1.31 h.

Q: What about the half-life [1, 9] of the same compound?
A: Its half-life is 4.03 ± 1.16 h.

Q: What about the “%Stability recoveries (Mean ± SD), Freeze-thaw (−80 °C)” value ([2]; HQC) of the same compound?
A: The value was 102.8 ± 2.3%.

Q: What about the “%Stability recoveries (Mean ± SD), Bench-top 4 h (4 °C)” value ([2]; HQC) of the same compound?
A: The value was 96.1 ± 2.0%.

Q: What about the “%Stability recoveries (Mean ± SD), Long-term 40 days (−80 °C)” value ([2]; HQC) of the same compound?
A: The value was 98.5 ± 2.3%.

Q: And the “%Stability recoveries (Mean ± SD), Auto-sampler 27 h (18 °C)” value ([2]; HQC)?
A: The value was 103.3 ± 1.3%.

Q: What about the “%Stability recoveries (Mean ± SD), Freeze-thaw (−80 °C)” value ([2]; LQC) of the same compound?
A: Its value is 113.2 ± 3.8%.

Q: And the “%Stability recoveries (Mean ± SD), Bench-top 4 h (4 °C)” value ([2]; LQC)?
A: Its value is 92.5 ± 4.6%.

Q: What about the “%Stability recoveries (Mean ± SD), Long-term 40 days (−80 °C)” value ([2]; LQC) of the same compound?
A: Its value is 91.3 ± 1.0%.

Q: What about the “%Stability recoveries (Mean ± SD), Auto-sampler 27 h (18 °C)” value ([2]; LQC) of the same compound?
A: Its value is 95.3 ± 8.6%.

Q: And the “Stability accuracy under the test conditions” value (“Stability accuracy” below) [2]?
A: Its value is 86.6–113.2%.

Q: And the Tmax (in vivo)?
A: The Tmax was 3.17 ± 0.98 h.

Q: With CC[C@@H](CO)NCCN[C@@H](CC)CO [EMB, ethambutol] as the compound, how does the AUC [1, 5] read?
A: Its AUC is 58.7 ± 14.8 µg·h/mL.

Q: What about the AUC [1, 6] of the same compound?
A: The AUC was 7.88 ± 1.22 µg·h/mL.

Q: And the AUC ([1]; Medium Dose (standard dose))?
A: Its AUC is 18.5 ± 2.35 µg·h/mL.

Q: And the AUC(0-inf) [1, 5]?
A: The AUC(0-inf) was 59.2 ± 15 µg·h/mL.

Q: And the AUC(0-inf) [1, 6]?
A: Its AUC(0-inf) is 7.98 ± 1.23 µg·h/mL.

Q: What about the AUC(0-inf) ([1]; Medium Dose (standard dose)) of the same compound?
A: Its AUC(0-inf) is 18.7 ± 2.34 µg·h/mL.

Q: And the Cmax [1, 5]?
A: Its Cmax is 21100 ± 4230 ng/mL.

Q: And the Cmax [1, 6]?
A: Its Cmax is 2930 ± 890 ng/mL.

Q: And the Cmax ([1]; Medium Dose (standard dose))?
A: The Cmax was 8720 ± 1150 ng/mL.

Q: And the half-life [1, 7]?
A: The half-life was 12 ± 0.62 h.

Q: And the half-life [1, 8]?
A: The half-life was 11.8 ± 1.31 h.

Q: And the half-life [1, 9]?
A: Its half-life is 12.7 ± 1.88 h.

Q: What about the Tmax [1, 5] of the same compound?
A: Its Tmax is 0.92 ± 0.38 h.

Q: And the Tmax [1, 6]?
A: The Tmax was 1.25 ± 0.94 h.

Q: What about the Tmax [1, 10] of the same compound?
A: The Tmax was 0.83 ± 0.2 h.

Q: What about the Solubility in acetonitrile [3] of the same compound?
A: Its Solubility in acetonitrile is “poor solubility”.

Q: And the “%Stability recoveries (Mean ± SD), Freeze-thaw (−80 °C)” value ([2]; HQC)?
A: Its value is 98.0 ± 2.6%.

Q: What about the “%Stability recoveries (Mean ± SD), Bench-top 4 h (4 °C)” value ([2]; HQC) of the same compound?
A: The value was 86.6 ± 0.9%.

Q: What about the “%Stability recoveries (Mean ± SD), Long-term 40 days (−80 °C)” value ([2]; HQC) of the same compound?
A: The value was 101.8 ± 0.9%.

Q: And the “%Stability recoveries (Mean ± SD), Auto-sampler 27 h (18 °C)” value ([2]; HQC)?
A: The value was 94.0 ± 5.0%.

Q: And the “%Stability recoveries (Mean ± SD), Freeze-thaw (−80 °C)” value ([2]; LQC)?
A: The value was 106.6 ± 6.2%.

Q: What about the “%Stability recoveries (Mean ± SD), Bench-top 4 h (4 °C)” value ([2]; LQC) of the same compound?
A: Its value is 100.5 ± 4.8%.

Q: And the “%Stability recoveries (Mean ± SD), Long-term 40 days (−80 °C)” value ([2]; LQC)?
A: Its value is 109.3 ± 4.7%.

Q: And the “%Stability recoveries (Mean ± SD), Auto-sampler 27 h (18 °C)” value ([2]; LQC)?
A: Its value is 103.2 ± 3.6%.

Q: And the “Stability accuracy” value [2]?
A: Its value is 86.6–113.2%.

Q: For CCCc1cc(C(N)=S)ccn1 [PTO, protionamide], which “Stability accuracy” value [4] is on record?
A: The value was 86.6–113.2%.

Q: For NC(=O)c1cnccn1 [PZA, pyrazinamide], which AUC [1, 5] is on record?
A: The AUC was 1970 ± 298 µg·h/mL.

Q: What about the AUC [1, 6] of the same compound?
A: The AUC was 50.2 ± 7.6 µg·h/mL.

Q: And the AUC ([1]; Medium Dose (standard dose))?
A: The AUC was 1080 ± 187 µg·h/mL.

Q: And the AUC(0-inf) [1, 5]?
A: Its AUC(0-inf) is 1970 ± 298 µg·h/mL.

Q: What about the AUC(0-inf) [1, 6] of the same compound?
A: The AUC(0-inf) was 50.2 ± 7.6 µg·h/mL.

Q: And the AUC(0-inf) ([1]; Medium Dose (standard dose))?
A: Its AUC(0-inf) is 1080 ± 188 µg·h/mL.

Q: What about the Cmax [1, 5] of the same compound?
A: Its Cmax is 241000 ± 19200 ng/mL.

Q: And the Cmax [1, 6]?
A: Its Cmax is 57000 ± 11900 ng/mL.

Q: And the Cmax ([1]; Medium Dose (standard dose))?
A: Its Cmax is 125000 ± 6700 ng/mL.

Q: What about the half-life [1, 7] of the same compound?
A: Its half-life is 2.62 ± 0.1 h.

Q: What about the half-life [1, 8] of the same compound?
A: The half-life was 2.82 ± 0.08 h.

Q: And the half-life [1, 9]?
A: Its half-life is 2.7 ± 0.21 h.

Q: What about the Tmax [1, 5] of the same compound?
A: Its Tmax is 1.33 ± 0.26 h.

Q: What about the Tmax [1, 6] of the same compound?
A: The Tmax was 1.13 ± 0.54 h.

Q: What about the Tmax [1, 10] of the same compound?
A: The Tmax was 1.04 ± 0.6 h.

Q: What about the “%Stability recoveries (Mean ± SD), Freeze-thaw (−80 °C)” value ([2]; HQC) of the same compound?
A: Its value is 98.6 ± 0.7%.

Q: What about the “%Stability recoveries (Mean ± SD), Bench-top 4 h (4 °C)” value ([2]; HQC) of the same compound?
A: The value was 95.4 ± 2.5%.

Q: And the “%Stability recoveries (Mean ± SD), Long-term 40 days (−80 °C)” value ([2]; HQC)?
A: The value was 88.6 ± 0.9%.

Q: And the “%Stability recoveries (Mean ± SD), Auto-sampler 27 h (18 °C)” value ([2]; HQC)?
A: Its value is 102.5 ± 3.3%.

Q: And the “%Stability recoveries (Mean ± SD), Freeze-thaw (−80 °C)” value ([2]; LQC)?
A: The value was 106.3 ± 3.0%.

Q: What about the “%Stability recoveries (Mean ± SD), Bench-top 4 h (4 °C)” value ([2]; LQC) of the same compound?
A: The value was 95.2 ± 3.4%.

Q: What about the “%Stability recoveries (Mean ± SD), Long-term 40 days (−80 °C)” value ([2]; LQC) of the same compound?
A: Its value is 97.9 ± 2.0%.

Q: And the “%Stability recoveries (Mean ± SD), Auto-sampler 27 h (18 °C)” value ([2]; LQC)?
A: Its value is 101.1 ± 1.6%.

Q: What about the “Stability accuracy” value [2] of the same compound?
A: Its value is 86.6–113.2%.
